Columns and labels:
Assay type in all cases: cell-based, Human
[1] = tested on: A549 cells; test: Apoptosis assay (ApoONE, caspase 3/7 activation); settings: 50 μM cisplatin
Procedure: Cell viability and apoptosis were assessed by CellTiter Glo (Promega) and ApoONE (Promega) kits, respectively. Molecular changes were screened using a MALDI524 FTICR MS platform.
Human lung carcinoma A549 cells were obtained from ATCC (Manassas, Va.) and cultured in Dulbecco's Modified Eagle's Medium (DMEM, Gibco) with 10% v/v heat-inactivated fetal bovine serum (Atlanta Biologicals) and 1% v/v penicillin/streptomycin (P/S) (Gibco) at 37° C. with 5% CO2 atmosphere. Stable isotope labeling by amino acids in cell culture (SILAC) media were prepared using SILAC DMEM (Thermo Scientific) containing 10% v/v dialyzed heat-inactivated FBS (Fisher), 1% v/v P/S, proline (250 mg/L) (Thermo Scientific), and appropriate light and heavy labeled arginine (84 mg/L), lysine (146 mg/L). […]
At each time point, cell viability and apoptosis were assessed by CellTiter-Glo (Promega) and ApoONE (Promega) kits, respectively. Plates were incubated at 37° C. in a plate reader (BioTek) with data acquisition every 10 min by luminescence (1 s read time, 200 gain) and fluorescence (485 nm excitation, 528 nm emission). […] Cell viability was also assessed using the LIVE/DEAD Viability/Cytotoxicity Kit for mammalian cells (ThermoFisher). […]

[2] = tested on: A549 cells; test: Molecular screening assay (MALDI FTICR MS molecular variance score); settings: 1 and 6 h exposure, doses 20-100 μM
Procedure: After incubation for the respective times, wells were washed 3 times with PBS and stored at −80° C. The effect of different toxin dosage amounts and exposure times on the molecular content of a sample may be evaluated and reported directly for thousands of molecular species based upon the mass spectra that were collected for each of the samples. A comparison of the mass-to-charge (m/z) peak content between spectra from dosed cells and a reference spectrum from a non-dosed control sample delivers a mass spectrometric assessment of toxicity-induced molecular variation. However, seeking a data-driven global comparison instead of focusing on specific molecular species of interest makes the assessment of molecular change between the different experimental conditions very complex and high dimensional. To determine which dosage amount induces the greatest molecular change, a quick and broad assessment of toxicity-induced molecular variance summarizing the entire recorded mass range was developed. […]
Within each time point (represented by a 24-well plate), seven different dosage conditions were measured: six different toxin dosages and one reference condition (e.g., untreated). Per dosage condition there were nine distinct replicate measurements made: each dosage condition was represented by three replicate wells, from which three technical replicate spectra were measured per well. […]

[3] = tested on: A549 cells; test: Multi-omics analysis (transcriptome, proteome, phosphoproteome, metabolome); settings: 50 μM cisplatin, A549 cells, 1, 6, 24 and 48 h
Procedure: Samples were analyzed for transcriptome changes by RNA sequencing at the Genomics Services Lab, HudsonAlpha, for proteome changes by label free, SILAC, and phospho-enriched SILAC LC-MS/MS, and metabolome changes by UPLC-IM-MS and data-independent acquisition (MSE) using both hydrophilic-interaction liquid chromatography and reverse phase liquid chromatography.
RNA was isolated using the RNeasy Mini Kit (Qiagen). For each time point, untreated and cisplatin-treated samples were isolated in triplicate and analyzed by the Genomics Services Lab at HudsonAlpha. RNAseq was performed using poly(A) selection on an Illumina HiSeq v4 sequencing platform. Reads were paired-end with a read length of 50 bp and 50 million reads per sample.
Cells were scraped from slides and lysed in 300 μL of 50 mM Tris pH 8, 150 mM NaCl, 1% Nonidet 40, 1 mM EDTA with added HALT Protease Inhibitor Cocktail (Thermo Scientific), centrifuged, and assayed for protein concentration (BCA Protein Assay, Thermo Scientific Pierce) using a SpectraMax M2e Microplate Reader with SoftMax Pro software version 5 (Molecular Devices). Aliquots of 100 μg of protein were acetone precipitated in six times the volume for 2 h at −80° C. Precipitates were washed three times with cold acetone and reconstituted in 10 μL of neat trifluoroethanol (TFE) and 10 μL of 100 mM Tris (pH 8.0). […]

## N.N.[Cl][Pt][Cl] [cisplatin]
[1]
  time of maximal caspase activation: 24 h
[2]
  dose up to which molecular variance increased (maximum molecular response, optimal dose): 50 µM
[3]
  percentage of unique species detected that were significantly changed: 24%
[3]; of 53,500 unique species detected
  number of significantly changed unique species: 13,483
